Laboratory results as given in article PMC5431432, “Low-basicity 5-HT7 Receptor Agonists Synthesized Using the van Leusen Multicomponent Protocol” (Scientific Reports, 2017).
Like-named read-outs stand apart in the source and are kept apart here.

Legend:
human serotonin 5-HT1AR = target: T1, human serotonin 5-HT1AR (Homo sapiens, UniProt P08908); experiment: Radioligand binding, [3H]-8-OH-DPAT displacement
T1 sequence (P08908 1-422): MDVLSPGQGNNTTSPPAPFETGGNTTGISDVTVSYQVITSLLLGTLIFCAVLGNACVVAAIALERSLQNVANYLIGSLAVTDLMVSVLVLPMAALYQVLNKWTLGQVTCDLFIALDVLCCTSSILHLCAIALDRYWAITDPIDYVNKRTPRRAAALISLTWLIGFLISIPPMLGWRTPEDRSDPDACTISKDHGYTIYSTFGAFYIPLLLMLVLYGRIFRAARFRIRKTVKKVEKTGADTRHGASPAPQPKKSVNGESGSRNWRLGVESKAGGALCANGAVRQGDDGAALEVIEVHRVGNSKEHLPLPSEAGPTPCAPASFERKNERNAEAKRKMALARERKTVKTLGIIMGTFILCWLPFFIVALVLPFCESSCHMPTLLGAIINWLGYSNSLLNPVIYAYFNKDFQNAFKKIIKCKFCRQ

[1] = target: T2, human serotonin 5-HT2A receptor (Homo sapiens, UniProt P28223); experiment: Radioligand binding, [3H]-ketanserin displacement
T2 construct: host or cells: CHO-K1

human serotonin 5-HT7bR = human serotonin 5-HT7bR (Homo sapiens, UniProt P34969); experiment: Radioligand binding, [3H]-5-CT displacement
human serotonin 5-HT6R = human serotonin 5-HT6R (Homo sapiens, UniProt P50406); experiment: Radioligand binding, [3H]-LSD displacement
human dopamine D2LR = human dopamine D2LR (Homo sapiens, UniProt P14416); experiment: Radioligand binding, [3H]-raclopride displacement
[2] = Fig. 2, read-out: pKi 5-HT1A (converted)
[3] = Fig. 2, read-out: pKi 5-HT2A (converted)
[4] = Fig. 2, read-out: pKi 5-HT6 (converted)
[5] = Fig. 2, read-out: pKi D2 (converted)
[6] = Fig. 2, read-out: pKi 5-HT7 (converted)

Sequence of human serotonin 5-HT6R (P50406 whole entry): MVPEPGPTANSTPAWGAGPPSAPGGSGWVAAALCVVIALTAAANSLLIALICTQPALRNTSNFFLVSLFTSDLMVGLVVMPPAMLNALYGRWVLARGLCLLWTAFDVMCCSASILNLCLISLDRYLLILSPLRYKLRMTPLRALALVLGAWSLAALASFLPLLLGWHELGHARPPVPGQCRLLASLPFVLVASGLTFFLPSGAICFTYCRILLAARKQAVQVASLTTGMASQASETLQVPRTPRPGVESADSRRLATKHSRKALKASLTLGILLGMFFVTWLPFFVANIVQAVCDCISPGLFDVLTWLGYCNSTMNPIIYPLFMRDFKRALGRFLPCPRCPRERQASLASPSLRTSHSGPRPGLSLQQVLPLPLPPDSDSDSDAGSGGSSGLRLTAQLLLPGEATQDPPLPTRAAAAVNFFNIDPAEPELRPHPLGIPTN
Sequence of human dopamine D2LR (P14416 whole entry): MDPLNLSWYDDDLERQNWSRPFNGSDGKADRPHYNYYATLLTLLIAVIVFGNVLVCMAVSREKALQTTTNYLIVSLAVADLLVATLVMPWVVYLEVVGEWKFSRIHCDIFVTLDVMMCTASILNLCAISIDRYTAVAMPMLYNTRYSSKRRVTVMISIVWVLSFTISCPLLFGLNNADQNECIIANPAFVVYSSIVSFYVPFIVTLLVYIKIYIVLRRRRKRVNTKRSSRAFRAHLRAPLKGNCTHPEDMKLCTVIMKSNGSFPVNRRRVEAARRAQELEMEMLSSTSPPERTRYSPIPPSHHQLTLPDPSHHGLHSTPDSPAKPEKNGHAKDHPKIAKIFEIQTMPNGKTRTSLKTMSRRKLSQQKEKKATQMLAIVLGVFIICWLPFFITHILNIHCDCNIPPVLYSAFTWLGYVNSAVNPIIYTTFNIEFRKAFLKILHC
Sequence of human serotonin 5-HT7bR (P34969 1-432 limits assumed): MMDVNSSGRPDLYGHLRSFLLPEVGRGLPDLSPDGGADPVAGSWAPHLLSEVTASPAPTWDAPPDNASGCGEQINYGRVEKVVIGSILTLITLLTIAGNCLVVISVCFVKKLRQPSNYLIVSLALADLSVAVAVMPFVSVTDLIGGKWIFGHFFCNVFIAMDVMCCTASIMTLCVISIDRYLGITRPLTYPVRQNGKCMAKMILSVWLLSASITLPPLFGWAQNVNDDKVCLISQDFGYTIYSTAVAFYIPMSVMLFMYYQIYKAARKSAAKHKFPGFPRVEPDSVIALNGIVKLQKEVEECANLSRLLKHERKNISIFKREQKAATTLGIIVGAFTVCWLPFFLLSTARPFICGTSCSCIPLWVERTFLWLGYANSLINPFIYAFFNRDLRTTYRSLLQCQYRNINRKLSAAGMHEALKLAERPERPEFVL
T2 sequence (P28223 whole entry): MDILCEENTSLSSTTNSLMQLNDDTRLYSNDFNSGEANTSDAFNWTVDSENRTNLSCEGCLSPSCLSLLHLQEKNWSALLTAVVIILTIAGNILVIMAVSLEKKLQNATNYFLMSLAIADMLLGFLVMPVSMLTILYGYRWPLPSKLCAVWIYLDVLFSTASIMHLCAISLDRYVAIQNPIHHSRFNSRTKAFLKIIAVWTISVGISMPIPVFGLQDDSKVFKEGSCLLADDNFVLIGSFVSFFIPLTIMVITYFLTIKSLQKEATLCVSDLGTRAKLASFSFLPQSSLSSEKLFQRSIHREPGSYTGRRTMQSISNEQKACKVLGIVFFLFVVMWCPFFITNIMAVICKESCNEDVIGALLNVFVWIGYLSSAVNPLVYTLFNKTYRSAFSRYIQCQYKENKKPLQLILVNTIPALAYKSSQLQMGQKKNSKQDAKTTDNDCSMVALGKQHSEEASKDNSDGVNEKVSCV

## Cn1cc(CCN)c2ccccc21 [1-methyltryptamine, reference compound]
Human serotonin 5-HT1AR
  Ki: 2.39 µM
[1]
  Ki: 6.59 µM
Human serotonin 5-HT7bR
  Ki: 4.83 µM
Human serotonin 5-HT6R
  Ki: 3.62 µM
Human dopamine D2LR
  Ki: 6.54 µM

## CCn1cncc1-c1cn(C)c2ccccc12 [1c]
Human serotonin 5-HT1AR; [2]
  Ki: > 10 µM
[1]; [3]
  Ki: > 10 µM
Human serotonin 5-HT7bR; read-out: Ki 5-HT7
  Ki: 5.62 µM
Human serotonin 5-HT6R; [4]
  Ki: 7.76 µM
Human dopamine D2LR; [5]
  Ki: > 10 µM

## CCn1cncc1-c1cn(C)c2ccc(OC)cc12 [1d]
Human serotonin 5-HT1AR; [2]
  Ki: 5.01 µM
[1]; [3]
  Ki: > 10 µM
Human serotonin 5-HT7bR; read-out: Ki 5-HT7
  Ki: > 10 µM
Human serotonin 5-HT6R; [4]
  Ki: 5.5 µM
Human dopamine D2LR; [5]
  Ki: > 10 µM

## CCCn1cncc1-c1c[nH]c2ccc(OC)cc12 [1f]
Human serotonin 5-HT1AR; [2]
  Ki: > 10 µM
[1]; [3]
  Ki: 4.27 µM
Human serotonin 5-HT7bR; [6]
  Ki: 0.0646 µM
Human serotonin 5-HT6R; [4]
  Ki: > 10 µM
Human dopamine D2LR; [5]
  Ki: > 10 µM

## CCCCn1cncc1-c1c[nH]c2ccc(OC)cc12 [1g]
Human serotonin 5-HT1AR; [2]
  Ki: 0.661 µM
[1]; [3]
  Ki: 6.17 µM
Human serotonin 5-HT7bR; [6]
  Ki: 0.324 µM
Human serotonin 5-HT6R; [4]
  Ki: 5.89 µM
Human dopamine D2LR; [5]
  Ki: > 10 µM

## COc1ccc2[nH]cc(-c3cncn3C3CC3)c2c1 [1h]
Human serotonin 5-HT1AR; [2]
  Ki: 1.29 µM
[1]; [3]
  Ki: > 10 µM
Human serotonin 5-HT7bR
  binding to 5-HT7R in words: non-active
Human serotonin 5-HT7bR; [6]
  Ki: 3.31 µM
Human serotonin 5-HT6R; [4]
  Ki: 5.25 µM
Human dopamine D2LR; [5]
  Ki: > 10 µM

## C=CCn1cncc1-c1c[nH]c2ccc(OC)cc12 [1i]
Human serotonin 5-HT1AR; [2]
  Ki: 0.537 µM
[1]; [3]
  Ki: > 10 µM
Human serotonin 5-HT7bR; [6]
  Ki: 0.135 µM
Human serotonin 5-HT6R; [4]
  Ki: 5.75 µM
Human dopamine D2LR; [5]
  Ki: > 10 µM

## CCn1cncc1-c1c[nH]c2cc(Br)ccc12 [1j]
Human serotonin 5-HT1AR; [2]
  Ki: > 10 µM
[1]; [3]
  Ki: > 10 µM
Human serotonin 5-HT7bR
  binding to 5-HT7R in words: low affinity
Human serotonin 5-HT7bR; [6]
  Ki: > 10 µM
Human serotonin 5-HT6R; [4]
  Ki: 6.92 µM
Human dopamine D2LR; [5]
  Ki: > 10 µM

## CCn1cncc1-c1c[nH]c2cccc(Br)c12 [1k]
Human serotonin 5-HT1AR; [2]
  Ki: > 10 µM
[1]; [3]
  Ki: > 10 µM
Human serotonin 5-HT7bR
  binding to 5-HT7R in words: low affinity
Human serotonin 5-HT7bR; [6]
  Ki: 2.29 µM
Human serotonin 5-HT6R; [4]
  Ki: 8.71 µM
Human dopamine D2LR; [5]
  Ki: > 10 µM

## CCn1cncc1-c1c[nH]c2ccc(F)cc12 [1l]
Human serotonin 5-HT7bR; read-out: Ki 5-HT7
  Ki: 0.302 µM

## CCn1cncc1-c1c[nH]c2ccc(C#N)cc12 [1p]
Human serotonin 5-HT1AR; [2]
  Ki: > 10 µM
[1]; [3]
  Ki: > 10 µM
Human serotonin 5-HT7bR; [6]
  Ki: 2.51 µM
Human serotonin 5-HT6R; [4]
  Ki: > 10 µM
Human dopamine D2LR; [5]
  Ki: > 10 µM

## CCn1cncc1-c1c(C)[nH]c2ccc(OC)cc12 [1v]
Human serotonin 5-HT1AR; [2]
  Ki: > 10 µM
[1]; [3]
  Ki: > 10 µM
Human serotonin 5-HT7bR; [6]
  Ki: > 10 µM
Human serotonin 5-HT6R; [4]
  Ki: > 10 µM
Human dopamine D2LR; [5]
  Ki: > 10 µM

## COc1ccc2[nH]cc(-c3cnc[nH]3)c2c1 [1x]
Human serotonin 5-HT1AR; [2]
  Ki: 6.76 µM
[1]; [3]
  Ki: 7.94 µM
Human serotonin 5-HT7bR; [6]
  Ki: 1.2 µM
Human serotonin 5-HT6R; [4]
  Ki: 4.07 µM
Human dopamine D2LR; [5]
  Ki: 6.17 µM

## CCn1cncc1-c1c[nH]c2ccc(OCc3ccccc3)cc12 [1y]
Human serotonin 5-HT1AR; [2]
  Ki: > 10 µM
[1]; [3]
  Ki: > 10 µM
Human serotonin 5-HT7bR; [6]
  Ki: 3.72 µM
Human dopamine D2LR; [5]
  Ki: 4.47 µM

## CCn1cncc1-c1c[nH]c2ccc(C(N)=O)cc12 [1za, 3-(1-Ethyl-1H-imidazol-5-yl)-1H-indole-5-carboxamide]
Human serotonin 5-HT7bR; read-out: Ki 5-HT7
  Ki: 0.005 µM

## COc1ccc(-c2cncn2C)cc1 [2b]
Human serotonin 5-HT1AR; [2]
  Ki: > 10 µM
[1]; [3]
  Ki: > 10 µM
Human serotonin 5-HT7bR
  binding to 5-HT7R in words: completely inactive
Human serotonin 5-HT7bR; [6]
  Ki: > 10 µM
Human serotonin 5-HT6R; [4]
  Ki: 5.37 µM
Human dopamine D2LR; [5]
  Ki: > 10 µM

## COc1cccc(-c2cncn2C)c1 [2c]
Human serotonin 5-HT1AR; [2]
  Ki: > 10 µM
[1]; [3]
  Ki: > 10 µM
Human serotonin 5-HT7bR; [6]
  Ki: > 10 µM
Human serotonin 5-HT6R; [4]
  Ki: 8.91 µM
Human dopamine D2LR; [5]
  Ki: > 10 µM

## COc1ccccc1-c1cncn1C [2d]
Human serotonin 5-HT1AR; [2]
  Ki: > 10 µM
[1]; [3]
  Ki: > 10 µM
Human serotonin 5-HT7bR; [6]
  Ki: 2.45 µM
Human serotonin 5-HT6R; [4]
  Ki: > 10 µM
Human dopamine D2LR; [5]
  Ki: > 10 µM

## Cn1cncc1-c1ccccc1 [2e]
Human serotonin 5-HT1AR; [2]
  Ki: > 10 µM
[1]; [3]
  Ki: > 10 µM
Human serotonin 5-HT7bR; [6]
  Ki: > 10 µM
Human serotonin 5-HT6R; [4]
  Ki: > 10 µM
Human dopamine D2LR; [5]
  Ki: > 10 µM

## COc1cc(-c2cncn2C)c(OC)cc1I [2f]
Human serotonin 5-HT1AR; [2]
  Ki: > 10 µM
[1]; [3]
  Ki: > 10 µM
Human serotonin 5-HT7bR; [6]
  Ki: > 10 µM
Human serotonin 5-HT6R; [4]
  Ki: 5.37 µM
Human dopamine D2LR; [5]
  Ki: 6.92 µM

## CCn1cncc1-c1cc2ccccc2[nH]1 [3b]
Human serotonin 5-HT1AR; [2]
  Ki: > 10 µM
[1]; [3]
  Ki: > 10 µM
Human serotonin 5-HT7bR; [6]
  Ki: > 10 µM
Human serotonin 5-HT6R; [4]
  Ki: > 10 µM
Human dopamine D2LR; [5]
  Ki: > 10 µM

## CCn1cncc1-c1ccc2[nH]ccc2c1 [3c]
Human serotonin 5-HT1AR; [2]
  Ki: > 10 µM
[1]; [3]
  Ki: > 10 µM
Human serotonin 5-HT7bR; [6]
  Ki: 5.25 µM
Human serotonin 5-HT6R; [4]
  Ki: 3.55 µM
Human dopamine D2LR; [5]
  Ki: > 10 µM

## CCn1cncc1-c1ccc2cc[nH]c2c1 [3d]
Human serotonin 5-HT1AR; [2]
  Ki: > 10 µM
[1]; [3]
  Ki: > 10 µM
Human serotonin 5-HT7bR; [6]
  Ki: 2.63 µM
Human serotonin 5-HT6R; [4]
  Ki: 4.57 µM
Human dopamine D2LR; [5]
  Ki: > 10 µM

## COc1ccc2[nH]cc(CCN)c2c1 [5-methoxytryptamine, reference compound]
Human dopamine D2LR
  Ki: > 10 µM
